Measured values published in ChEMBL document CHEMBL1221403, “Topsentinols, 24-isopropyl steroids from the marine sponge Topsentia sp” (J Nat Prod, 2010).
The source made the active and inactive calls. The rule behind the calls is not given here.

How the values were obtained:
Beta-secretase 1 = Beta-secretase 1 (Homo sapiens, UniProt P56817); assay: Inhibition of BACE1-mediated cleavage of amyloid precursor protein after 16 hrs by spectrophotometry
[1] = Inhibition of chymotrypsin in absence of Triton X-100
[2] = Inhibition of chymotrypsin in presence of 0.01% Triton X-100

Chain of Beta-secretase 1 (P56817 whole entry): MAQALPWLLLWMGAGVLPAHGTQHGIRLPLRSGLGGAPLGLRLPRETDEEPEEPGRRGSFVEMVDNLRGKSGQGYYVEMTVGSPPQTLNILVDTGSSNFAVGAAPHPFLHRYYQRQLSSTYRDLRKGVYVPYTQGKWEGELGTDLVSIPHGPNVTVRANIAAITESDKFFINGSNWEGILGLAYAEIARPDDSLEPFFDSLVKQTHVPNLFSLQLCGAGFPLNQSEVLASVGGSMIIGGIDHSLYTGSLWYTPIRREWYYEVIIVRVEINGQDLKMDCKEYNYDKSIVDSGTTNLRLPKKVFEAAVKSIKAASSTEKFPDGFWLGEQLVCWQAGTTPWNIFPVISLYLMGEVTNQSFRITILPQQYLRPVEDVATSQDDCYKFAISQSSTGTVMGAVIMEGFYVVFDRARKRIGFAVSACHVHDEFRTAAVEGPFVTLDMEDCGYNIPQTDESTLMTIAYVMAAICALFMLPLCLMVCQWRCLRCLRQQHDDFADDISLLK

**Q.** Which IC50 (Beta-secretase 1) does the source give for `CC(C)C(/C=C\[C@@H](C)[C@H]1CC[C@H]2[C@@H]3C[C@H](OS(=O)(=O)O)[C@H]4C[C@H](OS(=O)(=O)O)[C@@H](OS(=O)(=O)O)C[C@]4(C)[C@H]3CC[C@]12C)C(C)C` [TOPSENTINOL K TRISULFATE] here?
**A.** 1.2 µM

**Q.** And the inhibition (Beta-secretase 1)?
**A.** Dose-dependent effect

**Q.** And the IC50 [1]?
**A.** 2.7 µM

**Q.** What about the IC50 [2] of the same molecule?
**A.** 34.6 µM

**Q.** Which inhibition (Beta-secretase 1) does the source give for `CC(C)C(/C=C/[C@@H](C)[C@H]1CC[C@H]2[C@@H]3C[C@H](O)[C@H]4C[C@H](O)[C@@H](O)C[C@]4(C)[C@H]3CC[C@]12C)C(C)C` here?
**A.** inactive

**Q.** Which inhibition (Beta-secretase 1) does the source give for `CC(C)C(/C=C\[C@@H](C)[C@H]1CC[C@H]2[C@@H]3C[C@H](O)[C@H]4C[C@H](O)[C@@H](O)C[C@]4(C)[C@H]3CC[C@]12C)C(C)C` here?
**A.** inactive

**Q.** For `CC(C)C(/C=C/[C@@H](C)[C@H]1CC[C@H]2[C@@H]3CC=C4C[C@@H](O)CC[C@]4(C)[C@H]3CC[C@]12C)C(C)C`, which inhibition (Beta-secretase 1) is on record?
**A.** inactive

**Q.** For `C=C(C)C(/C=C\[C@@H](C)[C@H]1CC[C@H]2[C@@H]3C[C@H](O)[C@H]4C[C@H](O)[C@@H](O)C[C@]4(C)[C@H]3CC[C@]12C)C(C)C` (stereo partly drawn), which inhibition (Beta-secretase 1) is on record?
**A.** inactive
